Columns and labels:
Assay type in all cases: cell-based
[1] = system: translocation of the LC3 protein in Hela GFP-LC3 cells; experiment: Translocation of the LC3 protein in Hela human cells measured by image analysis cytometry (test C, autophagy); conditions: EBSS + 10 μM hydroxychloroquine, cells with LC3 granulations, absolute IC50
Experimental: Inhibitory activity of the molecules on autophagy is measured by means of the translocation of the LC3 protein from the cytoplasm to the autophagosomes. For this, Hela cells were transfected with a vector encoding the chimeric protein GFP-LC3. A Hela clone stably expressing the GFP-LC3 protein was selected.
Study of the Translocation of the LC3 Protein in Hela Human Cells, Measured by Image Analysis Cytometry (Test C):
(§1) On day 1, the Hela GFP-LC3 cells are seeded into 96-well plates coated with poly-D-lysine (Greiner, #655946) at the concentration of 15000 cells/well in 200 μl of DMEM medium (DMEM Gibco #11960-044) containing 10% of foetal calf serum (FCS Gibco, #10500-056) and 1% glutamine (L-Glu Gibco #25030-024), and incubated at 37° C., 5% CO2, overnight.
On day 2, the cells are washed twice with EBSS (Sigma #E3024). The cells are then incubated in EBSS, 10 μM hydroxychloroquine and test products, for 2 hours at 37° C. in the presence of 5% CO2. The molecules are diluted in dimethyl sulphoxide (DMSO Sigma #D2650), the final DMSO percentage being 0.1%. The molecules are tested at increasing concentrations in a range that can extend from 10 nM to 1 μM.
After this incubation, the cells are fixed with 4% paraformaldehyde (Sigma #HT501128 4L) for 10 min. The cells are then washed twice with PBS and the nuclei then stained with 2 μg/ml of Hoechst 33342 (Invitrogen #H3570). The 96-well plates are then read with the iCyte image analysis cytometer (Compucyte).
The activity of the product is translated to IC50, obtained from a dose-response curve of various concentrations tested and representing the dose giving 50% specific inhibition (absolute IC50). 2 independent experiments make it possible to calculate the mean of the IC50 values.

[2] = system: AKT protein phosphorylated on serine 473 (P-AKT-S473) in PC3 human prostate carcinoma cells; experiment: pAKT expression in PC3 human prostate carcinoma cells measured by MSD Multi-spot Biomarker detection (test B); conditions: MSD sandwich immunoassay, 1 to 2 h incubation, absolute IC50
Experimental: The inhibitory activity of the molecules on AKT phosphorylation is measured either by western blotting using the technique described below, or by the MSD Multi-spot Biomarker detection technique from Meso Scale Discovery also described below.
Study of pAKT Expression in PC3 Human Prostate Carcinoma Cells Measured by the MSD Multi-Spot Biomarker Detection Technique from Meso Scale Discovery (Test B):
This test is based on measuring the expression of the AKT protein phosphorylated on serine 473 (P-AKT-S473), in the PC3 human prostate carcinoma line, by means of the technique based on a sandwich immunoassay using the MSD Multi-spot Biomarker Detection kit from Meso Scale Discovery: phospho-Akt (Ser473) whole cell lysate kit (#K151CAD) or phospho-Akt (Ser473)/Total Akt whole cell lysate kit (#K151OOD). The primary antibody specific for P-AKT-S473 (Kit #K151CAD) is coated onto an electrode in each well of the 96-well plates of the MSD kit: after the addition of a protein lysate to each well, the signal is visualised by adding a secondary detection antibody labelled with an electrochemoluminescent compound. The procedure followed is that described in the kit.
as §1, with “PC3” for “Hela GFP-LC3”, “(TPP, #92096)” for “coated with poly-D-lysine (Greiner, #655946)”, “35 000” for “15000”
On day 2, the cells are incubated in the presence or absence of the test products for 1 to 2 h at 37° C. in the presence of 5% of CO2. The molecules, diluted in dimethyl sulphoxide (DMSO Sigma #D2650), are added from a 20-times concentrated stock solution, the final percentage of DMSO being 0.1%. The molecules are tested either at a single concentration of less than or equal to 10 μM, or at increasing concentrations in a range that can extend from less than 1 nM to 10 μM.
After this incubation, the cells are lysed for the preparation of the proteins. For this, after the culture medium has been drawn off, 50 μl of complete Tris Lysis Buffer of the MSD kit containing the protease and phosphatase inhibitor solutions are added to the wells and the cells are lysed for 1 h at 4° C. with shaking. At this stage, the plates containing the lysates can be stored at −20° C. or at −80° C.
The wells of the 96-well plates of the MSD kit are saturated for 1 h at ambient temperature with the blocking solution of the MSD kit. Four washes are carried out with 150 μl of Tris Wash Buffer of the MSD kit. The lysates previously prepared are transferred into the 96-well multi-spot plates of the MSD kit and incubated for 1 h at ambient temperature, with shaking. Four washes are carried out with 150 μl of Tris Wash Buffer of the MSD kit. 25 μl of the MSD sulfo-tag detection antibody solution are added to the wells and incubated for 1 h at ambient temperature, with shaking. Four washes are carried out with 150 μl of Tris Wash Buffer of the MSD kit. 150 μl of Read Buffer of the MSD kit are added to the wells and the plates are read immediately on the S12400 instrument from Meso Scale Discovery.
The instrument measures a signal for each well. Wells without cells and containing the lysis buffer serve to determine the background noise that will be subtracted from all the measurements (min). The wells containing cells in the absence of product and in the presence of 0.1% DMSO are considered to be the 100% signal (max). The percentage inhibition is calculated for each concentration of test product according to the following formula: (1-((test−min)/(max−min)))×100.
The activity of the product is translated to IC50, obtained from a dose-response curve of the various concentrations tested and representing the dose giving 50% specific inhibition (absolute IC50). 2 independent experiments make it possible to calculate the mean of the IC50 values.

[3] = system: P. falciparum (highly chloroquine-resistant strain Fcm29-Cameroon); experiment: Antimalarial activity test (radioactive micromethod of Desjardins, tritiated hypoxanthine incorporation); conditions: Plasmodium falciparum, Erythrocyte, infected human erythrocytes, 48 h
Experimental: Antimalarial Activity Test
The antimalarial activity tests are carried out according to the radioactive micromethod of Desjardins (R. E. Desjardins, C. J. Canfield, J. D. Haynes, J. D. Chulay, Antimicrob. Agents Chemother., 1979, 16, 710-718). The assays are carried out in 96-well microplates (Test Plates Ref. 92696, Techno Plastic Products Ag, Zollstrasse 155, CH-8219 Trasadingen). The P. falciparum strains are cultured in solutions of RPMI 1640 supplemented with 5% of human serum with a haematocrit at 2% and a blood parasite concentration at 1.5%. For each assay, the parasites are incubated with selected concentrations of drugs for 48 h at 37° C. in a humid atmosphere and at 5% CO2. Artemisinin, artesunate and also chloroquine diphosphate are used as reference molecules. The first dilution of the drug is prepared at 1 mg/ml in dimethyl sulphoxide. The range of dilutions of the successive daughter solutions is also prepared in dimethyl sulphoxide. Each daughter dilution is subsequently diluted to 1/50 in RPMI 1640 supplemented with 5% of human serum, all the dilutions being carried out at 37° C. These dilutions are then added to the parasites in culture in the microplates. After addition of the drug, the parasites are in culture in RPMI 1640 containing 5% of human serum and 1% of dimethyl sulphoxide. The parasite growth is measured by incorporation of tritiated hypoxanthine (added 24 h after the beginning of the exposure to the drug) compared with the incorporation in the absence of drug.
The activity of the product is translated to % inhibition of the growth of P. falciparum (highly chloroquine-resistant strain Fcm29-Cameroon) at 1 μM and 0.1 μM in an in vitro test using infected human erythrocytes.

[4] = Homo sapiens, PC-3, P-AKT-S473, PC3 cells

Compound	IC50 ([1]; Homo sapiens, HeLa, 2 h) [nM]	inhibition at 1 µM [3] [%]	also measured
CCC(c1ccccc1)N1c2nc(N3CCOCC3)cc(=O)n2C[C@@]1(C)C(F)(F)F (single isomer, unassigned) [Example 13, (S)-2-Methyl-7-morpholin-4-yl-1-((R) or (S)-1-phenylpropyl)-2-trifluoromethyl-2,3-dihydro-1H-imidazo[1,2-a]pyrimidin-5-one]	822	–	–
CC(c1cccc(F)c1)N1c2nc(N3CCOCC3)cc(=O)n2C[C@@]1(C)C(F)(F)F (single isomer, unassigned) [Example 22, (2S)-1-[(1R or 1S)-1-(3-Fluorophenyl)ethyl]-2-methyl-7-(morpholin-4-yl)-2-(trifluoromethyl)-2,3-dihydroimidazo[1,2-a]pyrimidin-5(1H)-one]	872	–	IC50 [2, 4]: 59 nM
CC(c1ccccc1)N1c2nc(N3CCOCC3)cc(=O)n2C[C@@]1(C)C(F)(F)F (single isomer, unassigned) [Example 31, (2S)-2-Methyl-7-(morpholin-4-yl)-1-[(1R or 1S)-1-phenylethyl]-2-(trifluoromethyl)-2,3-dihydroimidazo[1,2-a]pyrimidin-5(1H)-one]	–	–	IC50 ([1]; 2 hours): 334 nM; IC50 ([2]; P-AKT-S473, PC3 cells): 60 nM
C[C@@]1(C(F)(F)F)Cn2c(nc(N3CCOCC3)cc2=O)N1CCSc1ccccc1 [Example 7, (S)-2-Methyl-7-morpholin-4-yl-1-(2-phenylsulfanylethyl)-2-trifluoromethyl-2,3-dihydro-1H-imidazo[1,2-a]pyrimidin-5-one]	71	–	–
C[C@H](CN1c2nc(N3CCOCC3)cc(=O)n2C[C@@]1(C)C(F)(F)F)c1ccccc1 [Example 9, (S)-2-Methyl-7-morpholin-4-yl-1-((S)-2-phenylpropyl)-2-trifluoromethyl-2,3-dihydro-1H-imidazo[1,2-a]pyrimidin-5-one]	191	–	–
C[C@@]1(C(F)(F)F)Cn2c(nc(N3CCOCC3)cc2=O)N1C[C@H](O)c1ccccc1 [Example 11]	235	13	–
COc1ccc(CCN2c3nc(N4CCOCC4)cc(=O)n3CC2(C)C)cc1 [Example 17, 1-[2-(4-Methoxyphenyl)ethyl]-2,2-dimethyl-7-morpholin-4-yl-2,3-dihydro-1H-imidazo[1,2-a]pyrimidin-5-one]	345	–	–
COc1ccc(CCN2c3nc(N4CCOCC4)c(F)c(=O)n3C[C@@]2(C)C(F)(F)F)cc1 [Example 18, (2S)-6-Fluoro-1-[2-(4-methoxyphenyl)ethyl]-2-methyl-7-(morpholin-4-yl)-2-(trifluoromethyl)-2,3-dihydroimidazo[1,2-a]pyrimidin-5(1H)-one]	39	–	–
C[C@@]1(C(F)(F)F)Cn2c(nc(N3CCOCC3)cc2=O)N1C(=O)c1ccccc1Cl [Example 34, (2S)-1-[(2-chlorophenyl)carbonyl]-2-methyl-7-(morpholin-4-yl)-2-(trifluoromethyl)-2,3-dihydroimidazo[1,2-a]pyrimidin-5(1H)-one]	–	–	IC50 [2, 4]: 159 nM
COc1cc(F)c(C(O)CN2c3nc(N4CCOCC4)cc(=O)n3C[C@@]2(C)C(F)(F)F)cc1OC (stereo partly drawn) [Example 39, (S)-1-[2-(2-fluoro-4,5-dimethoxyphenyl)-2-hydroxyethyl]-2-methyl-7-morpholin-4-yl-2-trifluoromethyl-2,3-dihydro-1H-imidazo[1,2-a]pyrimidin-5-one]	–	85	inhibition at 0.1 µM [3]: 39%
COc1ccccc1[C@H](O)CN1c2nc(N3CCOCC3)cc(=O)n2C[C@@]1(C)C(F)(F)F [Example 40, (S)-1-[(S)-2-hydroxy-2-(2-methoxyphenyl)ethyl]-2-methyl-7-morpholin-4-yl-2-trifluoromethyl-2,3-dihydro-1H-imidazo[1,2-a]pyrimidin-5-one]	–	80	inhibition at 0.1 µM [3]: 20%
COc1cc(Cl)ccc1[C@H](O)CN1c2nc(N3CCOCC3)cc(=O)n2C[C@@]1(C)C(F)(F)F [Example 41, (S)-1-[(S)-2-(4-chloro-2-methoxyphenyl)-2-hydroxyethyl]-2-methyl-7-morpholin-4-yl-2-trifluoromethyl-2,3-dihydro-1H-imidazo[1,2-a]pyrimidin-5-one]	–	78	–
COc1cc(F)ccc1[C@H](O)CN1c2nc(N3CCOCC3)cc(=O)n2C[C@@]1(C)C(F)(F)F [Example 42, (S)-1-[(S)-2-(4-fluoro-2-methoxyphenyl)-2-hydroxyethyl]-2-methyl-7-morpholin-4-yl-2-trifluoromethyl-2,3-dihydro-1H-imidazo[1,2-a]pyrimidin-5-one]	–	78	–
COc1ccc([C@H](O)CN2c3nc(N4CCOCC4)cc(=O)n3C[C@@]2(C)C(F)(F)F)c(Cl)c1 [Example 43, (S)-1-[(S)-2-(2-chloro-4-methoxyphenyl)-2-hydroxyethyl]-2-methyl-7-morpholin-4-yl-2-trifluoromethyl-2,3-dihydro-1H-imidazo[1,2-a]pyrimidin-5-one]	–	74	inhibition at 0.1 µM [3]: 22%

Reference: patent US8828997B2, “2,3-dihydro-1H-imidazo(1,2-a)pyrimidin-5-one derivatives, preparation thereof, and pharmaceutical use thereof” (Sanofi, priority 2009, dated 2014)
